Laboratory results from the supplement of paper PMC6045584.
± gives the standard deviation of the averaged measurements.

What was measured:
[1] = compound: C[C@H](CN(C)C)Oc1nc(Nc2cc3cccc(Cl)c3cn2)cnc1C#N; experiment: surviving fraction relative to DMSO-only wells; higher = less growth inhibition; details: exposure time: 5 days
In short: (§1)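 For each tumour cell line, log-phase cells were put into 384-well plates at 250–500 cells per well, then after 24 hours exposed continuously for five days to inhibitors at 0.5, 1, 5, 10, 50, 100, 500 and 1000 nM. Viability was assessed by CellTiter-Glo luminescence, with surviving fraction expressed relative to the median of DMSO-only wells. Lines were screened three times and retained only if replicate Pearson r exceeded 0.7 and median Z' exceeded 0.3.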

[2] = compound: CCc1cc(Nc2nccc(-c3c(-c4ccc(OC)c(C(=O)Nc5c(F)cccc5F)c4)nc4ccccn34)n2)c(OC)cc1N1CCC(N2CCN(S(C)(=O)=O)CC2)CC1; experiment: as above; details: exposure time: 5 days
In short: as §1

| Test System | surviving fraction ([1]; 0.5 nM) | surviving fraction ([1]; 1 nM) | surviving fraction ([1]; 5 nM) | surviving fraction ([1]; 10 nM) | surviving fraction ([1]; 50 nM) | surviving fraction ([1]; 100 nM) | surviving fraction ([1]; 500 nM) | surviving fraction ([1]; 1000 nM) | surviving fraction ([2]; 0.5 nM) | surviving fraction ([2]; 1 nM) | surviving fraction ([2]; 5 nM) | surviving fraction ([2]; 10 nM) | surviving fraction ([2]; 50 nM) | surviving fraction ([2]; 100 nM) | surviving fraction ([2]; 500 nM) | surviving fraction ([2]; 1000 nM) |
| --- | --- | --- | --- | --- | --- | --- | --- | --- | --- | --- | --- | --- | --- | --- | --- | --- |
| HUO3N1 BONE | 1.11 ± 0.059 | 1.05 ± 0.032 | 1.07 ± 0.023 | 1.07 ± 0.072 | 1.13 ± 0.071 | 0.982 ± 0.031 | 0.7257 ± 0.0065 | 0.486 ± 0.025 | 0.94 ± 0.044 | 0.986 ± 0.032 | 1 ± 0.028 | 1.05 ± 0.06 | 1.01 ± 0.011 | 0.995 ± 0.052 | 0.947 ± 0.031 | 0.908 ± 0.024 |
| JIMT1 BREAST | 0.979 ± 0.019 | 0.966 ± 0.042 | 1.03 ± 0.01 | 0.988 ± 0.043 | 0.916 ± 0.053 | 0.467 ± 0.025 | 0.0688 ± 0.0064 | 0.0615 ± 0.0039 | 0.977 ± 0.04 | 1.01 ± 0.014 | 1.01 ± 0.011 | 1.02 ± 0.017 | 0.992 ± 0.032 | 1.04 ± 0.027 | 1 ± 0.031 | 0.986 ± 0.032 |
| JURKAT HAEMATOPOIETIC AND LYMPHOID TISSUE | 1.08 ± 0.028 | 1.07 ± 0.013 | 1.05 ± 0.015 | 1.01 ± 0.021 | 0.927 ± 0.038 | 0.948 ± 0.02 | 0.619 ± 0.029 | 0.103 ± 0.014 | 1.06 ± 0.011 | 1.07 ± 0.029 | 1.06 ± 0.027 | 1.07 ± 0.021 | 1.05 ± 0.022 | 1.01 ± 0.029 | 0.973 ± 0.034 | 0.886 ± 0.037 |
| KPD BONE | 1.04 ± 0.068 | 0.982 ± 0.083 | 1.03 ± 0.1 | 1.05 ± 0.11 | 1.06 ± 0.054 | 0.979 ± 0.025 | 0.4 ± 0.025 | 0.224 ± 0.028 | 0.907 ± 0.066 | 0.947 ± 0.071 | 1 ± 0.021 | 1.03 ± 0.062 | 0.989 ± 0.021 | 1.049 ± 0.0079 | 0.89 ± 0.081 | 0.849 ± 0.036 |
| LM7 BONE | 0.96 ± 0.013 | 0.916 ± 0.015 | 0.945 ± 0.068 | 1.02 ± 0.054 | 1.06 ± 0.086 | 0.99 ± 0.099 | 0.835 ± 0.11 | 0.528 ± 0.077 | 0.918 ± 0.051 | 0.885 ± 0.043 | 0.997 ± 0.08 | 0.97 ± 0.074 | 1.1 ± 0.11 | 1.01 ± 0.081 | 0.898 ± 0.013 | 0.758 ± 0.03 |
| LNCAP PROSTATE | 0.913 ± 0.085 | 0.863 ± 0.11 | 0.863 ± 0.015 | 0.92 ± 0.05 | 0.85 ± 0.064 | 0.855 ± 0.041 | 0.549 ± 0.047 | 0.464 ± 0.036 | 0.88 ± 0.064 | 0.964 ± 0.16 | 0.996 ± 0.08 | 0.849 ± 0.096 | 0.895 ± 0.15 | 0.93 ± 0.19 | 0.882 ± 0.063 | 0.632 ± 0.1 |
| MCF7 BREAST | 0.896 ± 0.012 | 0.87 ± 0.042 | 0.873 ± 0.069 | 0.881 ± 0.063 | 0.904 ± 0.026 | 0.813 ± 0.046 | 0.751 ± 0.016 | 0.697 ± 0.023 | 0.857 ± 0.036 | 0.905 ± 0.05 | 0.8677 ± 0.0068 | 0.874 ± 0.059 | 0.876 ± 0.013 | 0.897 ± 0.05 | 0.844 ± 0.027 | 0.769 ± 0.027 |
| MDAMB134 BREAST | 0.726 ± 0.035 | 0.791 ± 0.072 | 0.766 ± 0.071 | 0.663 ± 0.12 | 0.66 ± 0.073 | 0.6525 ± 0.005 | 0.497 ± 0.054 | 0.488 ± 0.02 | 1.21 ± 0.028 | 1.02 ± 0.034 | 0.988 ± 0.11 | 1.05 ± 0.13 | 1.03 ± 0.27 | 0.906 ± 0.12 | 0.882 ± 0.16 | 0.996 ± 0.18 |
| MDAMB157 BREAST | 0.946 ± 0.057 | 0.982 ± 0.033 | 1.01 ± 0.021 | 0.947 ± 0.048 | 1.03 ± 0.051 | 0.902 ± 0.11 | 0.239 ± 0.015 | 0.136 ± 0.029 | 0.834 ± 0.049 | 0.96 ± 0.15 | 0.973 ± 0.12 | 0.996 ± 0.052 | 0.934 ± 0.058 | 1.04 ± 0.094 | 0.94 ± 0.06 | 0.982 ± 0.14 |
| MDAMB231 BREAST | 0.9579 ± 0.0095 | 0.9571 ± 0.0043 | 0.93 ± 0.076 | 0.959 ± 0.024 | 0.9788 ± 0.0062 | 0.961 ± 0.02 | 0.743 ± 0.029 | 0.492 ± 0.0092 | 0.973 ± 0.025 | 1 ± 0.03 | 1.01 ± 0.033 | 1.03 ± 0.017 | 0.962 ± 0.024 | 1 ± 0.019 | 0.906 ± 0.022 | 0.875 ± 0.018 |
| MDAMB361 BREAST | 0.818 ± 0.021 | 0.744 ± 0.048 | 0.752 ± 0.058 | 0.775 ± 0.053 | 0.724 ± 0.03 | 0.547 ± 0.056 | 0.481 ± 0.02 | 0.488 ± 0.04 | 0.885 ± 0.088 | 0.947 ± 0.053 | 1.04 ± 0.051 | 0.887 ± 0.052 | 0.879 ± 0.044 | 0.998 ± 0.045 | 0.826 ± 0.041 | 0.726 ± 0.064 |
